experiment: in vitro; conditions: human, hela cells

SMILES | viability at 28.5 h, 10 µM [%]
C=CCSc1nnc(OC(=O)N(C)C)n1-c1ccc(Cl)cc1 [CBK004817] | 90.8

same assay, conditions: human, hela cells, % viability

SMILES | viability at 28.5 h, 10 µM [%]
O=C(c1ccco1)N1CCC(n2nc(C3CC3)ccc2=O)CC1 [CBK282350] | 109
Cc1ccc(N(Cc2cc3ccccc3nc2O)C(=O)c2cccnc2)cc1 [CBK265442] | 85.5
Nc1nc(CSc2nnc(Cc3ccc([N+](=O)[O-])cc3)n2-c2ccccc2)cs1 [CBK267408] | 93.5
CC(=O)OCc1nc2cc(F)c(F)cc2[nH]1 [CBK110117] | 92.9
CC(C)C(Nc1nc2ncn(Cc3ccccc3)c2c(=O)[nH]1)C(=O)O (stereo not shown) [CBK261685] | 91.2
Cc1cc(S(=O)(=O)Nc2cccc(Br)c2)c(C)cc1Cl [CBK043652] | 80.8
COc1ccc(CN2CC[C@H]3[C@@H](C2)[C@H](c2ccsc2)CN3C(=O)c2ccccc2)cc1 [CBK285614] | 97.6
Cc1cn(C2CC(O)C(CN=[N+]=[N-])O2)c(=O)[nH]c1=O (stereo not shown) [CBK201256] | 102
CC(C)(C)CC(=O)N[C@H]1C[C@H]2C(=O)Nc3ccccc3C(=O)N2C1 [CBK289352] | 96.2
O=C(O)CC1Sc2ccccc2NC1=O (stereo not shown) [CBK261308] | 101
CCOC(=O)N[C@@H](CC1CCCCC1)C(=O)NCCc1ccc(S(N)(=O)=O)cc1 [CBK015131] | 106
CCCS(=O)(=O)N1CCCC(Cc2ccccc2C)(C(=O)OCC)C1 (stereo not shown) [CBK307502] | 84.9
Nn1c(SCC(=O)Nc2ccc3c(c2)OCO3)nnc1-c1ccccn1 [CBK267550] | 101
O=C(Nc1ccccc1-n1ccnc1)c1ncoc1-c1ccc(F)cc1 [CBK282417] | 94.1
COC(=O)[C@H]1CN(C(=O)c2cccnc2)C[C@@H]1c1ccc(F)cc1 [CBK283788] | 92.1
O=C(NCCCO)c1cc2ccccc2[nH]1 [CBK267638] | 87.9
COc1cccc2cc(C(=O)C3=C(O)C(=O)N(CCN4CCOCC4)C3c3ccc(F)cc3)oc12 (stereo not shown) [CBK266414] | 93.3
C=CCNC(=O)N[C@H]1[C@H](O)[C@@H](N(CC)CC)[C@@H]2OC[C@H]1O2 [CBK288817] | 91.1
O=C1Nc2ccccc2C(O)(C(=O)NCc2ccccc2)N1c1ccccc1 (stereo not shown) [CBK288555] | 91.1
NS(=O)(=O)c1cccc(NC(=O)COc2ccc([N+](=O)[O-])cc2)c1 [CBK263624] | 92.2
O=C(CSc1ccc2ccccc2n1)NNC(=O)c1cccc([N+](=O)[O-])c1 [CBK262506] | 91.7
O=C(O)c1cccc(NC(=O)c2cccc(S(=O)(=O)Nc3ccc(Cl)cc3)c2)c1 [CBK261261] | 92.6

SMILES | viability at 28.5 h, 10 µM [%]
O=C(CSc1nnc(COc2cccc3cccnc23)n1-c1ccccc1)N1CCCC1 [CBK269614] | 79.1
O=C(Cc1ccsc1)N1CCC2(CCN(Cc3ccccc3)CC2)C1 [CBK136742] | 89.8
CC(Sc1nc(N)cc(=O)[nH]1)C(=O)Nc1ccc(S(N)(=O)=O)cc1 (stereo not shown) [CBK266191] | 110
CSc1nsc(SCc2cnc(C)nc2N)n1 [CBK268337] | 105
CCN1CCN(Cc2c[nH]c3ccccc23)CC1 [CBK261540] | 99.4
COCC(=O)Nc1ccc(N2CCCC2=O)c(Cl)c1 [CBK256871] | 106
CCCCN(C(=O)CC1SC(NC2CCCCCC2)=NC1=O)c1ccccc1 (stereo not shown) [CBK067392] | 92.4
COC(=O)CCc1ccc(S(=O)(=O)N2CCCN(Cc3c[nH]c(=O)[nH]c3=O)CC2)cc1 [CBK063082] | 113
COc1ccccc1N(CC(=O)Nc1c(C)cccc1C)S(=O)(=O)c1ccc(C)cc1 [CBK264810] | 96.5
CC(C)N(C(=O)CN1C(=O)N2CCCN=C2c2ccccc21)C(C)C [CBK284400] | 100
CCc1ccc(CNC(=O)Cn2nnnc2-c2ccc(CN3CCC(C)CC3)cn2)cc1 [CBK153930C] | 85.6
O=C(Nc1ccc(Cc2ccncc2)cc1)c1sc2c([N+](=O)[O-])cccc2c1Cl [CBK269635] | 97.1
CCCC/C=C/c1cn2ccnc2c(NCc2cc(OC)c(OC)c(OC)c2)n1 [CBK066331] | 93.1
CC(C)(C)NCC(O)COc1cccc2c3c(oc12)CCCC3 (stereo not shown) [CBK008871C] | 90.2
COc1cc2c(cc1/C=C1/S/C(=N\c3ccccc3)N(CCCN3CCOCC3)C1=O)OCO2 [CBK265631] | 78.7
COc1ccccc1-c1ccc2c(c1)COC1(CCN(C)CC1)O2 [CBK061024] | 82.2
CC1CCN(CC(=O)NC2CCN(C(C)c3ccccc3)CC2)CC1 (stereo not shown) [CBK284017] | 101
Cc1nc(NCCN2CCCC(CO)C2)nc2c1CCCC2 (stereo not shown) [CBK307430] | 82
O=C(O)CCN1CCCC2(CCN(C(=O)Cc3c[nH]c4ccccc34)C2)C1 (stereo not shown) [CBK137138] | 114
CCc1nc2ccc(C(=O)Nc3cccc(OC)c3)cn2c1N(C)Cc1cccs1 [CBK145522] | 96.7
COCCn1c(CO)nnc1[C@H]1C[C@@H](NC(=O)c2ccc(O)c(F)c2)C1 [CBK307132] | 74.1
CC(=O)N1CCCc2cc(C(O)CN3CCCC(C)C3)ccc21 (stereo not shown) [CBK282142] | 84.1

SMILES | viability at 28.5 h, 10 µM [%]
CCc1nccn1CCCNC(=O)Nc1cc(-c2cccnc2)nn1C [CBK306657] | 88.3
CS(=O)(=O)N[C@H]1CO[C@H]2[C@@H]1OC[C@H]2OC(=O)Nc1cccc2ccccc12 [CBK289469] | 89
Cc1ccc(Nc2cc(-c3cc4ccccc4o3)ncn2)cc1NS(C)(=O)=O [CBK091148] | 93.6
COc1ccc(NC(=O)N2CC[C@H]3CC(=O)N(CCN4CCNC4=O)CC[C@H]3C2)cc1 [CBK288797] | 86.8
O=C(N/N=C/c1ccc([N+](=O)[O-])cc1)c1ccccc1Cl [CBK261775] | 88.7
O=C(N/N=C\c1cccc(OC(=O)c2cccs2)c1)c1ccc([N+](=O)[O-])cc1 [CBK262289] | 77.3
Cc1cccc2c3c([nH]c12)C1(CCCN(C/C=C\c2ccccc2)C1)N(C=O)CC3 (stereo not shown) [CBK040265] | 92.4
CC(Oc1cccc(Cl)c1)C(=O)NN (stereo not shown) [CBK261207] | 90.1
COc1ccc2[nH]cc(CCNC(=O)c3cc(-c4cccc(NC(C)=O)c4)cnc3N(C)S(C)(=O)=O)c2c1 [CBK076599] | 101
COc1ccc(C2(CN3CCC(NC(=O)C(C)C)CC3)CC2)cc1 [CBK285374] | 104
Nc1ncc(-c2ccc(O)cc2)nc1N1CCN(CCO)CC1 [CBK063685] | 105
N#CCCN(C(=O)Nc1ccc(Cl)cc1)C1CCCCC1 [CBK156365] | 89.1
CCCC/C=C/c1cnc(N)c(Nc2ccc3[nH]ccc3c2)n1 [CBK063811] | 95.7
Nc1nnc(C(F)(F)F)s1 [CBK038099] | 119
COc1ccccc1OCC(O)CN1CCN(C(=O)c2ccccc2)CC1 (stereo not shown) [CBK074386C] | 111
Cc1cc(NC(=O)C(=O)NC(C)c2ccccc2)ccc1Br (stereo not shown) [CBK267084] | 96.3
Cc1ccccc1NC(=O)CCC(=O)N/N=C/c1ccncc1 [CBK262016] | 101
C[C@@H]1C[C@H](C(F)(F)F)n2nc(C3CCCN3C(=O)C3CC3)cc2N1 (stereo partly shown) [CBK285432] | 90.6
Cc1cc2nc(NC(=N)N)[nH]c2cc1C [CBK003532] | 93.5
O=C(c1cccc(S(=O)(=O)Nc2ccc(Br)cc2)c1)N1CCCC1 [CBK296709] | 67.4
C[C@@H](Cn1nnc2ccccc21)NC(=O)Cc1cccc(F)c1 [CBK282306] | 90.8
Cc1ccc(NC(=O)N2CCC(C(=O)O)CC2)cc1 [CBK156077] | 105

SMILES | viability at 28.5 h, 10 µM [%]
COc1nnc(-c2ccc(C)cc2)c2ccccc12 [CBK263466] | 92
O=c1n(CC2CCCCC2)c2ccccc2n1S(=O)(=O)c1cccc(Cl)c1 [CBK106521] | 91.4
CCc1ccc(CNC(=O)Cn2nnc(-c3ccc(CNCCc4ccc(OC)c(OC)c4)cc3)n2)cc1 [CBK155008T] | 77.2
COCCNC(=O)c1ccc(-c2ccccc2)nc1N(C)C [CBK106049] | 99.8
CCOc1ccc(OCCC#N)cc1 [CBK015880] | 84.7
Cc1ccc(C(=O)N(Cc2nc(-c3ccc(Cl)cc3)no2)C(C)C)cc1[N+](=O)[O-] [CBK268422] | 98.7
O=C(NCCCCNC(=O)c1scc(-c2ccccc2)c1C(=O)O)c1scc(-c2ccccc2)c1C(=O)O [CBK296086] | 107
O=S(=O)(Cc1cccc(F)c1F)c1cc2c(N3CCNCC3)nccc2s1 [CBK045690C] | 89.1
O=C(O)C1CCCCC1c1nnc(S)[nH]1 (stereo not shown) [CBK266490] | 96.4
Cc1ccc(C2C3=C(CC(C)(C)CC3=O)Nc3[nH][nH]c(=O)c32)o1 (stereo not shown) [CBK288147] | 104
C[N+](C)(C)Cc1ccccc1 [CBK011977I] | 109
Cc1cc(C(=O)N2CCCCCC2c2nn(C)cc2Cl)on1 (stereo not shown) [CBK285121] | 107
CN(C)CCN1CCN(c2nc(-c3cccc4ccccc34)cnc2N)CC1 [CBK063479] | 94.7
CCCS(=O)(=O)Nc1cccc2[nH]ccc12 [CBK159488] | 97.5
COc1ccccc1CC(=O)N1CCC(Cc2cccc(-c3cccs3)c2)(C(N)=O)CC1 [CBK285743] | 93.3
C[C@]12CN(Cc3ccccc3)C[C@H]1NC(=O)c1ccccc1C2O (stereo partly shown) [CBK282302] | 112
c1cncc(CN2CCC(Oc3cncc(OCC4COc5ccccc5O4)n3)C2)c1 (stereo not shown) [CBK084365] | 96.5
COc1ccc(CN2CCN(S(C)(=O)=O)CC2)c(OC)c1OC [CBK074491] | 102
CC(Sc1ccc(Cl)cc1)C(=O)NCCN1CCOCC1 (stereo not shown) [CBK269316] | 111
Cc1nn(C)cc1CN(Cc1ccccc1F)CC1CCCO1 (stereo not shown) [CBK283014] | 106

same assay, conditions: human, hela cells, % viability, bulk resorufin, single well

SMILES | viability at 28.5 h, 10 µM [%]
O=[N+]([O-])c1ccc(Cl)cc1CN1CCN(c2ccccc2)CC1 [CBK261556] | 89.3

Reference: PMC12040169 (PLOS Biology, 2025)
